Results published in ChEMBL document CHEMBL3108720, “Polygonumosides A-D, stilbene derivatives from processed roots of Polygonum multiflorum” (J Nat Prod, 2014).

Test system: Radical scavenging activity
Assay: Antioxidant activity of the compound assessed as DPPH free radical scavenging activity after 30 mins
Assay type: functional

| IC50 | Structure (SMILES) |
| --- | --- |
| > 2000 µM | OC[C@H]1O[C@@H](Oc2c(O)cc(O)cc2[C@H](O)[C@@H](c2ccc(O)cc2)c2c(O)cc(O)c(O[C@@H]3O[C@H](CO)[C@@H](O)[C@H](O)[C@H]3O)c2/C=C/c2ccc(O)cc2)[C@H](O)[C@@H](O)[C@@H]1O |
| 569 µM | O=c1oc2cc(O[C@@H]3O[C@H](CO)[C@@H](O)[C@H](O)[C@H]3O)c3c(c2c2c(O)c(O)c(O)cc12)O[C@@H](c1ccc(O)cc1)C3 |
| > 2000 µM | OC[C@H]1O[C@@H](Oc2c(O)cc(O)cc2[C@@H](O)[C@H](c2ccc(O)cc2)c2c(O)cc(O)c(O[C@@H]3O[C@H](CO)[C@@H](O)[C@H](O)[C@H]3O)c2/C=C/c2ccc(O)cc2)[C@H](O)[C@@H](O)[C@@H]1O |
| 298 µM | O=c1oc2cc(O[C@@H]3O[C@H](CO)[C@@H](O)[C@H](O)[C@H]3O)c3c(c2c2c(O)c(O)c(O)cc12)O[C@H](c1ccc(O)cc1)C3 |
